Experiment: xn = mol fraction of the nth substance listed
Settings: 100 kPa

O=C1CCCCC1 + CCCC[n+]1ccn(C)c1C.F[B-](F)(F)F
x2 = 0
Settings | speed of sound [m/s]
298.15 K | 1414.5
308.15 K | 1375.1

CCCC[n+]1ccn(C)c1C.F[B-](F)(F)F + O=C1CCCCC1
speed of sound [m/s]
Settings | 293.15 K | 298.15 K | 303.15 K | 308.15 K
x1 = 0.0834 | 1450.2 | 1433.6 | 1413.1 | 1392
x1 = 0.1328 | 1459.4 | 1442.1 | 1421.5 | –
x1 = 0.1764 | 1467.2 | 1448.8 | 1427.9 | 1406.3
x1 = 0.2258 | 1472.4 | – | 1433.4 | 1412.3
x1 = 0.2675 | 1476.1 | 1458.1 | 1437.7 | 1417.1
x1 = 0.3094 | 1479.6 | – | 1441.5 | 1420.8
x1 = 0.3824 | 1486 | 1468.5 | – | 1428.9
x1 = 0.4368 | – | – | 1454.6 | 1434.8
x1 = 0.4755 | 1496 | 1478.6 | – | 1440.1
x1 = 0.5276 | 1503.2 | 1486.2 | 1467.5 | 1448.5
x1 = 0.5649 | 1509.3 | 1492.5 | 1474.1 | 1455.6
x1 = 0.6063 | 1517 | 1500.4 | 1482.5 | 1464.2
x1 = 0.6451 | 1525.2 | 1508.9 | – | 1473.4
x1 = 0.6947 | – | 1521.1 | 1504.3 | 1487.3
x1 = 0.7419 | 1550.5 | 1534.8 | 1518.7 | –
x1 = 0.7994 | – | 1553.9 | – | –
x1 = 0.8527 | 1589.2 | 1574.3 | 1559.8 | 1544.8
x1 = 0.9134 | 1615.7 | – | 1587.9 | –
x1 = 1 | 1659.7 | 1645.7 | 1632.5 | –

From a compilation of properties of binary mixtures (doi:10.1016/j.molliq.2017.02.011)
